Test results as given in ChEMBL document CHEMBL1201862, “PubChem BioAssay data set” (2004).
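48-hour exposure; five concentrations; linearly interpolated endpoints. GI50 is the concentration that inhibits growth by half.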 Active and inactive are the calls of the source. No stated cut-off is given here; in the data, active = GI50 up to about 1.1 µM and inactive = higher.

Assays:
Test in all cases: DTP human tumour cell line panel, 48 h
UO-31 = tested on: UO-31
SK-MEL-5 = tested on: SK-MEL-5
MOLT-4 = tested on: MOLT-4
K562 = tested on: K562
BT-549 = tested on: BT-549
ACHN = tested on: ACHN
PC-3 = tested on: PC-3
COLO 205 = tested on: COLO 205
CAKI-1 = tested on: CAKI-1
RPMI-8226 = tested on: RPMI-8226
KM12 = tested on: KM12
DU-145 = tested on: DU-145
OVCAR-5 = tested on: OVCAR-5
SK-MEL-2 = tested on: SK-MEL-2
HCT-116 = tested on: HCT-116
UACC-62 = tested on: UACC-62
HCT-15 = tested on: HCT-15
OVCAR-3 = tested on: OVCAR-3
MCF7 = tested on: MCF7
NCI-H23 = tested on: NCI-H23
SNB-19 = tested on: SNB-19
HOP-62 = tested on: HOP-62
SF-295 = tested on: SF-295
786-0 = tested on: 786-0
UACC-257 = tested on: UACC-257
A549 = tested on: A549
MDA-N = tested on: MDA-N
OVCAR-8 = tested on: OVCAR-8
IGROV-1 = tested on: IGROV-1
HCC 2998 = tested on: HCC 2998
MDA-MB-435 = tested on: MDA-MB-435
MDA-MB-231 = tested on: MDA-MB-231
Malme-3M = tested on: Malme-3M
RXF 393 = tested on: RXF 393
M14 = tested on: M14
A498 = tested on: A498
TK-10 = tested on: TK-10
HOP-92 = tested on: HOP-92
SR = tested on: SR
CCRF-CEM = tested on: CCRF-CEM
SW-620 = tested on: SW-620
OVCAR-4 = tested on: OVCAR-4
SN12C = tested on: SN12C
EKVX = tested on: EKVX
SK-OV-3 = tested on: SK-OV-3
SF-539 = tested on: SF-539
HL-60 = tested on: HL-60
LOX IMVI = tested on: LOX IMVI
NCI-H522 = tested on: NCI-H522
NCI-H226 = tested on: NCI-H226
SNB-75 = tested on: SNB-75
U-251 = tested on: U-251
NCI/ADR-RES = tested on: NCI/ADR-RES
SK-MEL-28 = tested on: SK-MEL-28
T47D = tested on: T47D
NCI-H460 = tested on: NCI-H460
SF-268 = tested on: SF-268
HT-29 = tested on: HT-29
Hs-578T = tested on: Hs-578T

`Cc1ccc(Cl)c2c(=O)c3ccc([N+](=O)[O-])cc3sc12` was tested, and the GI50 (UO-31) was > 100 µM (inactive), the GI50 (SK-MEL-5) was > 100 µM (inactive) and the GI50 (MOLT-4) was > 100 µM (inactive). For the same compound, the GI50 (K562) was > 100 µM (inactive), the GI50 (BT-549) was > 100 µM (inactive) and the GI50 (ACHN) was > 100 µM (inactive). The GI50 (PC-3) was > 100 µM (inactive), the GI50 (COLO 205) was > 100 µM (inactive) and the GI50 (CAKI-1) was > 100 µM (inactive). For the same compound, the GI50 (RPMI-8226) was > 100 µM (inactive), the GI50 (KM12) was > 100 µM (inactive) and the GI50 (DU-145) was > 100 µM (inactive). For the same compound, the GI50 (OVCAR-5) was > 100 µM (inactive), the GI50 (SK-MEL-2) was > 100 µM (inactive) and the GI50 (HCT-116) was > 100 µM (inactive). The GI50 (UACC-62) was > 100 µM (inactive), the GI50 (HCT-15) was greater than 100 µM and the GI50 (OVCAR-3) was > 100 µM (inactive). For the same compound, the GI50 (MCF7) was > 100 µM (inactive), the GI50 (NCI-H23) was > 100 µM (inactive) and the GI50 (SNB-19) was > 100 µM (inactive). The GI50 (HOP-62) was 79.8 µM (inactive), the GI50 (SF-295) was 82.2 µM (inactive) and the GI50 (786-0) was > 100 µM (inactive). The GI50 (UACC-257) was > 100 µM (inactive), the GI50 (A549) was > 100 µM (inactive) and the GI50 (MDA-N) was > 100 µM (inactive). For the same compound, the GI50 (OVCAR-8) was > 100 µM (inactive).
`CC(=O)C(=CNc1c(C)n(C)n(-c2ccccc2)c1=O)C(C)=O` was tested, and the GI50 (UO-31) was > 100 µM (inactive), the GI50 (IGROV-1) was > 100 µM (inactive) and the GI50 (SK-MEL-5) was > 100 µM (inactive). The GI50 (MOLT-4) was > 100 µM (inactive), the GI50 (HCC 2998) was > 100 µM (inactive) and the GI50 (MDA-MB-435) was > 100 µM (inactive). For the same compound, the GI50 (K562) was > 100 µM (inactive), the GI50 (BT-549) was > 100 µM (inactive) and the GI50 (ACHN) was > 100 µM (inactive). For the same compound, the GI50 (MDA-MB-231) was > 100 µM (inactive), the GI50 (PC-3) was > 100 µM (inactive) and the GI50 (Malme-3M) was > 100 µM (inactive). For the same compound, the GI50 (COLO 205) was > 100 µM (inactive), the GI50 (CAKI-1) was > 100 µM (inactive) and the GI50 (RPMI-8226) was > 100 µM (inactive). The GI50 (RXF 393) was > 100 µM (inactive), the GI50 (KM12) was > 100 µM (inactive) and the GI50 (DU-145) was > 100 µM (inactive). For the same compound, the GI50 (OVCAR-5) was > 100 µM (inactive), the GI50 (M14) was > 100 µM (inactive) and the GI50 (SK-MEL-2) was > 100 µM (inactive). For the same compound, the GI50 (HCT-116) was > 100 µM (inactive), the GI50 (A498) was > 100 µM (inactive) and the GI50 (UACC-62) was > 100 µM (inactive). For the same compound, the GI50 (HCT-15) was greater than 100 µM, the GI50 (TK-10) was > 100 µM (inactive) and the GI50 (HOP-92) was > 100 µM (inactive). For the same compound, the GI50 (SR) was > 100 µM (inactive), the GI50 (CCRF-CEM) was > 100 µM (inactive) and the GI50 (SW-620) was > 100 µM (inactive). The GI50 (OVCAR-3) was > 100 µM (inactive), the GI50 (OVCAR-4) was > 100 µM (inactive) and the GI50 (SN12C) was > 100 µM (inactive). For the same compound, the GI50 (MCF7) was > 100 µM (inactive), the GI50 (EKVX) was > 100 µM (inactive) and the GI50 (NCI-H23) was > 100 µM (inactive). For the same compound, the GI50 (SK-OV-3) was > 100 µM (inactive), the GI50 (SNB-19) was > 100 µM (inactive) and the GI50 (SF-539) was > 100 µM (inactive). The GI50 (HL-60) was > 100 µM (inactive), the GI50 (LOX IMVI) was > 100 µM (inactive) and the GI50 (SF-295) was > 100 µM (inactive). The GI50 (NCI-H522) was > 100 µM (inactive), the GI50 (786-0) was > 100 µM (inactive) and the GI50 (UACC-257) was > 100 µM (inactive). For the same compound, the GI50 (NCI-H226) was > 100 µM (inactive), the GI50 (SNB-75) was > 100 µM (inactive) and the GI50 (U-251) was > 100 µM (inactive). The GI50 (A549) was > 100 µM (inactive), the GI50 (NCI/ADR-RES) was > 100 µM (inactive) and the GI50 (OVCAR-8) was > 100 µM (inactive).
With `CCN(CC)CCCNc1[nH]c2ccccc2c2nc3ccc(OC)cc3c1-2` the GI50 (UO-31) was 4.01 µM (inactive), the GI50 (IGROV-1) was 1.71 µM (inactive) and the GI50 (SK-MEL-5) was 1.73 µM (inactive). For the same compound, the GI50 (SK-MEL-28) was 1.69 µM (inactive), the GI50 (MOLT-4) was 0.279 µM (active) and the GI50 (HCC 2998) was 1.12 µM (inactive). For the same compound, the GI50 (MDA-MB-435) was 1.6 µM (inactive), the GI50 (K562) was 1.27 µM (inactive) and the GI50 (T47D) was 10 µM (inactive). For the same compound, the GI50 (ACHN) was 4.27 µM (inactive), the GI50 (MDA-MB-231) was 1.54 µM (inactive) and the GI50 (PC-3) was 1.22 µM (inactive). The GI50 (Malme-3M) was 1.76 µM (inactive), the GI50 (COLO 205) was 1.32 µM (inactive) and the GI50 (CAKI-1) was 2.71 µM (inactive). For the same compound, the GI50 (RPMI-8226) was 0.43 µM (active), the GI50 (RXF 393) was 1.59 µM (inactive) and the GI50 (KM12) was 0.695 µM (active). The GI50 (DU-145) was 2.64 µM (inactive), the GI50 (OVCAR-5) was 1.28 µM (inactive) and the GI50 (NCI-H460) was 0.367 µM (active). The GI50 (M14) was 1.71 µM (inactive), the GI50 (SK-MEL-2) was 1.73 µM (inactive) and the GI50 (HCT-116) was 0.618 µM (active). The GI50 (A498) was 2.12 µM (inactive), the GI50 (UACC-62) was 4.68 µM (inactive) and the GI50 (HCT-15) was 1.21 µM. For the same compound, the GI50 (TK-10) was 2.31 µM (inactive), the GI50 (HOP-92) was 2.13 µM (inactive) and the GI50 (SR) was 0.274 µM (active). The GI50 (CCRF-CEM) was 0.61 µM (active), the GI50 (SF-268) was 1.77 µM (inactive) and the GI50 (SW-620) was 0.828 µM (active). The GI50 (OVCAR-3) was 3.31 µM (inactive), the GI50 (OVCAR-4) was 1.21 µM (inactive) and the GI50 (SN12C) was 2.1 µM (inactive). For the same compound, the GI50 (MCF7) was 1.04 µM (active), the GI50 (EKVX) was 1.71 µM (inactive) and the GI50 (NCI-H23) was 1.57 µM (inactive). For the same compound, the GI50 (SK-OV-3) was 3.08 µM (inactive), the GI50 (SNB-19) was 1.59 µM (inactive) and the GI50 (SF-539) was 2.16 µM (inactive). For the same compound, the GI50 (HL-60) was 1.21 µM (inactive), the GI50 (LOX IMVI) was 1.11 µM (active) and the GI50 (HOP-62) was 1.43 µM (inactive). The GI50 (SF-295) was 1.17 µM (inactive), the GI50 (NCI-H522) was 1.46 µM (inactive) and the GI50 (786-0) was 1.16 µM (inactive). The GI50 (UACC-257) was 1.79 µM (inactive), the GI50 (NCI-H226) was 3.4 µM (inactive) and the GI50 (HT-29) was 0.521 µM (active). The GI50 (Hs-578T) was 1.78 µM (inactive), the GI50 (SNB-75) was 1.77 µM (inactive) and the GI50 (U-251) was 1.77 µM (inactive). For the same compound, the GI50 (A549) was 1.43 µM (inactive), the GI50 (NCI/ADR-RES) was 1.27 µM (inactive) and the GI50 (MDA-N) was 1.56 µM (inactive). For the same compound, the GI50 (OVCAR-8) was 0.824 µM (active).
